Experimental data taken from PubChem BioAssay (NCI).
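Where inhibition never reached the appropriate level, the endpoint shown equals the highest concentration tested. Otherwise, values were interpolated linearly from a five-concentration, 48-hour dose response in 96-well plates. TGI denotes the concentration required for complete inhibition of growth.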

Columns and labels:
Test in all cases: NCI anticancer screen, dose series, 48 h
[1] = test system: NCI-H522 lung
[2] = test system: SK-OV-3 ovarian
[3] = test system: SNB-19 CNS
[4] = test system: CAKI-1 renal
[5] = test system: HCC-2998 colon
[6] = test system: UACC-257 melanoma
[7] = test system: MDA-MB-231 breast
[8] = test system: ACHN renal
[9] = test system: COLO 205 colon
[10] = test system: MALME-3M melanoma
[11] = test system: OVCAR-4 ovarian
[12] = test system: SK-MEL-5 melanoma
[13] = test system: NCI-H226 lung
[14] = test system: SF-295 CNS
[15] = test system: HS 578T breast
[16] = test system: UACC-62 melanoma
[17] = test system: TK-10 renal
[18] = test system: OVCAR-5 ovarian
[19] = test system: SNB-75 CNS
[20] = test system: HCT-15 colon
[21] = test system: SF-539 CNS
[22] = test system: EKVX NSCLC
[23] = test system: SK-MEL-2 melanoma
[24] = test system: K-562 leukemia
[25] = test system: SF-268 CNS
[26] = test system: M14 melanoma
[27] = test system: MOLT-4 leukemia
[28] = test system: U251 CNS
[29] = test system: KM12 colon
[30] = test system: A498 renal
[31] = test system: HOP-62 NSCLC
[32] = test system: MDA-N
[33] = test system: IGROV1 ovarian
[34] = test system: HOP-92 NSCLC
[35] = test system: 786-0 renal
[36] = test system: BT-549 breast
[37] = test system: RXF 393 renal
[38] = test system: PC-3 prostate
[39] = test system: SN12C renal
[40] = test system: NCI/ADR-RES ovarian
[41] = test system: HCT-116 colon
[42] = test system: HT29 colon
[43] = test system: OVCAR-8 ovarian
[44] = test system: LOX IMVI melanoma
[45] = test system: NCI-H460 lung
[46] = test system: MCF7 breast
[47] = test system: SW-620 colon
[48] = test system: A549 NSCLC
[49] = test system: CCRF-CEM leukemia
[50] = test system: UO-31 renal
[51] = test system: OVCAR-3 ovarian
[52] = test system: T-47D breast
[53] = test system: DU-145 prostate
[54] = test system: MDA-MB-435
[55] = test system: RPMI-8226 leukemia
[56] = test system: SR leukemia
[57] = test system: SK-MEL-28 melanoma
[58] = test system: NCI-H23 lung
[59] = test system: HL-60(TB) leukemia

`CSC(SC)=C1C(=O)N(c2ccccc2)N=C1C` gave a TGI [1] of 59 µM, a TGI [2] of 91.9 µM and a TGI [3] of 98.1 µM. The TGI [4] was 65.8 µM, the TGI [5] was > 100 µM and the TGI [6] was > 100 µM. The TGI [7] was > 100 µM, the TGI [8] was > 100 µM and the TGI [9] was 36.3 µM. The TGI [10] was 58.8 µM, the TGI [11] was > 100 µM and the TGI [12] was 24.3 µM. The TGI [13] was 87.1 µM, the TGI [14] was 99.6 µM and the TGI [15] was > 100 µM. The TGI [16] was 89.9 µM, the TGI [17] was > 100 µM and the TGI [18] was > 100 µM. The TGI [19] was > 100 µM, the TGI [20] was > 100 µM and the TGI [21] was > 100 µM. It also gave a TGI [22] of 54.6 µM, a TGI [23] of 46.8 µM and a TGI [24] of 66.8 µM. For the same compound, the TGI [25] was > 100 µM, the TGI [26] was 60.8 µM and the TGI [27] was 52.9 µM. The TGI [28] was > 100 µM, the TGI [29] was > 100 µM and the TGI [30] was 90.5 µM. The TGI [31] was > 100 µM, the TGI [32] was > 100 µM and the TGI [33] was 93.5 µM. The TGI [34] was 33.7 µM, the TGI [35] was 62 µM and the TGI [36] was 81.9 µM. For the same compound, the TGI [37] was 74.4 µM, the TGI [38] was > 100 µM and the TGI [39] was 97.3 µM. The TGI [40] was > 100 µM, the TGI [41] was 54 µM and the TGI [42] was > 100 µM. The TGI [43] was > 100 µM, the TGI [44] was > 100 µM and the TGI [45] was 82.4 µM. The TGI [46] was 46 µM, the TGI [47] was > 100 µM and the TGI [48] was > 100 µM. For the same compound, the TGI [49] was 49.8 µM.

`COC(=O)[C@H](C)NC(=O)[C@H](CSC)N1C(=O)N[C@@H](C(C)C)C1=O` was tested, and the TGI [1] was > 100 µM, the TGI [2] was > 100 µM and the TGI [3] was > 100 µM. The TGI [4] was > 100 µM, the TGI [5] was > 100 µM and the TGI [6] was > 100 µM. The TGI [7] was > 100 µM, the TGI [8] was > 100 µM and the TGI [9] was > 100 µM. For the same compound, the TGI [10] was > 100 µM, the TGI [11] was > 100 µM and the TGI [12] was > 100 µM. The TGI [13] was > 100 µM, the TGI [14] was > 100 µM and the TGI [16] was > 100 µM. For the same compound, the TGI [17] was > 100 µM, the TGI [18] was > 100 µM and the TGI [19] was > 100 µM. For the same compound, the TGI [20] was > 100 µM, the TGI [50] was > 100 µM and the TGI [21] was > 100 µM. For the same compound, the TGI [22] was > 100 µM, the TGI [23] was > 100 µM and the TGI [24] was > 100 µM. For the same compound, the TGI [26] was > 100 µM, the TGI [27] was > 100 µM and the TGI [51] was > 100 µM. The TGI [52] was > 100 µM, the TGI [53] was > 100 µM and the TGI [28] was > 100 µM. The TGI [54] was > 100 µM, the TGI [29] was > 100 µM and the TGI [31] was > 100 µM. For the same compound, the TGI [32] was > 100 µM, the TGI [55] was > 100 µM and the TGI [56] was > 100 µM. The TGI [57] was > 100 µM, the TGI [33] was > 100 µM and the TGI [34] was > 100 µM. For the same compound, the TGI [35] was > 100 µM, the TGI [36] was > 100 µM and the TGI [37] was > 100 µM. For the same compound, the TGI [38] was > 100 µM, the TGI [39] was > 100 µM and the TGI [40] was > 100 µM. For the same compound, the TGI [41] was > 100 µM, the TGI [58] was > 100 µM and the TGI [42] was > 100 µM. For the same compound, the TGI [43] was > 100 µM, the TGI [44] was > 100 µM and the TGI [45] was > 100 µM. For the same compound, the TGI [46] was > 100 µM, the TGI [47] was > 100 µM and the TGI [48] was > 100 µM. The TGI [49] was > 100 µM.

In the case of `CC(C)(C)C(=O)C(Cc1ccccc1)C(=O)C(C)(C)C`, the TGI [1] is reported as > 100 µM, the TGI [2] is reported as > 100 µM and the TGI [3] is reported as > 100 µM. For the same compound, the TGI [4] was > 100 µM, the TGI [5] was > 100 µM and the TGI [6] was > 100 µM. The TGI [7] was > 100 µM, the TGI [8] was > 100 µM and the TGI [9] was > 100 µM. For the same compound, the TGI [10] was > 100 µM, the TGI [11] was > 100 µM and the TGI [12] was > 100 µM. For the same compound, the TGI [13] was > 100 µM, the TGI [14] was > 100 µM and the TGI [15] was > 100 µM. For the same compound, the TGI [17] was > 100 µM, the TGI [18] was > 100 µM and the TGI [19] was > 100 µM. For the same compound, the TGI [20] was > 100 µM, the TGI [50] was > 100 µM and the TGI [21] was > 100 µM. The TGI [22] was > 100 µM, the TGI [23] was > 100 µM and the TGI [24] was > 100 µM. For the same compound, the TGI [25] was > 100 µM, the TGI [26] was > 100 µM and the TGI [27] was > 100 µM. For the same compound, the TGI [51] was > 100 µM, the TGI [52] was > 100 µM and the TGI [53] was > 100 µM. The TGI [28] was > 100 µM, the TGI [29] was > 100 µM and the TGI [30] was > 100 µM. The TGI [31] was > 100 µM, the TGI [32] was > 100 µM and the TGI [55] was > 100 µM. The TGI [56] was > 100 µM, the TGI [57] was > 100 µM and the TGI [33] was > 100 µM. The TGI [34] was > 100 µM, the TGI [35] was > 100 µM and the TGI [37] was > 100 µM. The TGI [38] was > 100 µM, the TGI [39] was > 100 µM and the TGI [40] was > 100 µM. The TGI [41] was > 100 µM, the TGI [58] was > 100 µM and the TGI [42] was > 100 µM. The TGI [43] was > 100 µM, the TGI [44] was > 100 µM and the TGI [45] was > 100 µM. For the same compound, the TGI [46] was > 100 µM, the TGI [47] was > 100 µM and the TGI [48] was > 100 µM. For the same compound, the TGI [59] was > 100 µM and the TGI [49] was > 100 µM.

With `Nc1ccc2nc3n(c2c1)C(=O)c1ccccc1-3` the TGI [1] was > 100 µM, the TGI [2] was > 100 µM and the TGI [3] was > 100 µM. The TGI [4] was > 100 µM, the TGI [5] was > 100 µM and the TGI [6] was > 100 µM. The TGI [8] was > 100 µM, the TGI [9] was > 100 µM and the TGI [10] was > 100 µM. The TGI [11] was > 100 µM, the TGI [12] was > 100 µM and the TGI [13] was > 100 µM. The TGI [14] was > 100 µM, the TGI [16] was > 100 µM and the TGI [17] was > 100 µM. For the same compound, the TGI [18] was > 100 µM, the TGI [19] was > 100 µM and the TGI [20] was > 100 µM. The TGI [50] was > 100 µM, the TGI [21] was > 100 µM and the TGI [22] was > 100 µM. The TGI [23] was > 100 µM, the TGI [24] was > 100 µM and the TGI [25] was > 100 µM. The TGI [26] was > 100 µM, the TGI [27] was > 100 µM and the TGI [51] was > 100 µM. The TGI [53] was > 100 µM, the TGI [28] was > 100 µM and the TGI [29] was > 100 µM. The TGI [32] was > 100 µM, the TGI [55] was > 100 µM and the TGI [56] was > 100 µM. The TGI [57] was > 100 µM, the TGI [33] was > 100 µM and the TGI [34] was > 100 µM. The TGI [35] was > 100 µM, the TGI [36] was > 100 µM and the TGI [37] was > 100 µM. The TGI [38] was > 100 µM, the TGI [39] was > 100 µM and the TGI [40] was > 100 µM. For the same compound, the TGI [41] was > 100 µM, the TGI [58] was > 100 µM and the TGI [42] was > 100 µM. The TGI [43] was > 100 µM, the TGI [45] was > 100 µM and the TGI [46] was > 100 µM. For the same compound, the TGI [47] was > 100 µM, the TGI [48] was > 100 µM and the TGI [59] was > 100 µM. For the same compound, the TGI [49] was > 100 µM.
